# Like-named read-outs stand apart in the source and are kept apart here.
# Legend:
# Format in all cases: cell-based
# [1] = system: vancomycin resistant enterococci (VRE); assay: Broth microdilution MIC50/MIC90, VRE panel; details: Enterococcus, 10 VRE strains; for MIC90: VRE, read-out: MIC 90; for MIC50: read-out: MIC 50
# [2] = system: B. cereus; assay: Broth microdilution MIC/MBC, B. cereus; details: Bacillus cereus; for MBC: read-out: MBC; for MIC: read-out: MIC
# From the text: The broth microdilution technique was used, followed by subculturing on agar plates that were rhodanine—free.
# [3] = system: B. licheniformis; assay: Broth microdilution MIC/MBC, B. licheniformis; details: Bacillus licheniformis; for MBC: read-out: MBC; for MIC: read-out: MIC
# [4] = system: Mycobacterium smegmatis; assay: Broth microdilution MIC/MBC, Mycobacterium smegmatis; details: Mycolicibacterium smegmatis, ATCC14468, M. Smegmatis ATCC 14468; for MBC: read-out: MBC; for MIC: read-out: MIC
# [5] = system: Escherichia coli O157:H7; assay: MIC with/without sub-MIC colistin, Escherichia coli O157:H7
# Procedure: (§1) The MIC of the rhodanines and control antibiotics, in the presence of a sub-inhibitory concentration of colistin or polymixin B nonapeptide (PMBN), against Gram-negative bacteria was evaluated as described before. The antibacterial activity of the rhodanines was further investigated against E. coli SM1411Δ acrAB, a strain that is deficient in the multidrug-resistant AcrAB efflux pump, as described before.
# [6] = system: Salmonella Typhimurium; assay: MIC with/without sub-MIC colistin, Salmonella Typhimurium
# Procedure: as §1
# [7] = system: Klebsiella pneumoniae; assay: MIC with/without sub-MIC colistin, Klebsiella pneumoniae
# Procedure: as §1
# [8] = system: Pseudomonas aeruginosa; assay: MIC with/without sub-MIC colistin, Pseudomonas aeruginosa
# Procedure: as §1
# [9] = system: Acinetobacter baumannii; assay: MIC with/without PMBN, Acinetobacter baumannii
# Procedure: as §1
# [10] = system: Escherichia coli O157:H7; assay: MIC with/without PMBN, Escherichia coli O157:H7
# Procedure: as §1
# [11] = system: Salmonella Typhimurium; assay: MIC with/without PMBN, Salmonella Typhimurium
# Procedure: as §1
# [12] = system: Escherichia coli Δ acrAB; assay: MIC against E. coli 1411 and AcrAB efflux pump deficient E. coli SM1411Δ acrAB
# Procedure: as §1
# [13] = system: Vancomycin Resistant Staphylococcus aureus (VRSA); assay: Broth microdilution MIC/MBC, VRSA; details: for MBC / MIC: VRSA
# [14] = system: Bacillus anthracis; assay: microbe, parasite or virus in culture
# [15] = system: Acinetobacter baumannii; assay: Broth microdilution MIC, Acinetobacter baumannii
# [16] = NRS201, B. cereus NRS 201 NR-2488
# [17] = NCIB9375, B. licheniformis Gibson 46 (NCIB 9375) NR-2494
# [18] = NRS712, B. licheniformis NRS 712 NR-2499
# [19] = Escherichia coli O157:H7 ATCC 35150, colistin (+) […], read-out: MIC
# [20] = Escherichia coli O157:H7 ATCC 700728, colistin (+) […], read-out: MIC
# [21] = Salmonella Typhimurium ATCC 700720, colistin (+) […], read-out: MIC
# [22] = Salmonella enterica, ATCC 700720 / TYPHIMURIUM
# [23] = Klebsiella pneumoniae ATCC BAA 2146, colistin (+) […]
# [24] = Pseudomonas aeruginosa ATCC 921, colistin (+) […], read-out: MIC
# [25] = Pseudomonas aeruginosa, ATCC921
# [26] = Acinetobacter baumannii ATCC BAA747, PMBN (+) 4 μg/mL, read-out: MIC
# [27] = Acinetobacter baumannii ATCC BAA19606, PMBN (+) 4 μg/mL, read-out: MIC
# [28] = Acinetobacter baumannii, ATCCBAA747
# [29] = Acinetobacter baumannii, ATCCBAA19606
# [30] = Escherichia coli O157:H7 ATCC 35150, PMBN (+) 4 μg/mL, read-out: MIC
# [31] = Escherichia coli O157:H7 ATCC 700728, PMBN (+) 4 μg/mL, read-out: MIC
# [32] = Salmonella Typhimurium ATCC 700720, PMBN (+) 4 μg/mL, read-out: MIC
# [33] = E.coli 1411 SM (Δ acrAB, AcrAB efflux pump deficient)
smiles,measurement,setting,value
"CC(=O)NC[C@H]1CN(c2ccc(N3CCOCC3)c(F)c2)C(=O)O1 [Linezolid, linezolid, reference compound]",MIC90,[1],2 µM
same,MIC50,[1],2 µM
same,MBC,[2]; B. cereus BAG1O-2 NR-28582,2 µM
same,MIC,[2]; B. cereus BAG1O-2 NR-28582,2 µM
same,MBC,[2]; B. cereus BAG1X1-1 NR-28575,1 µM
same,MIC,[2]; B. cereus BAG1X1-1 NR-28575,< 0.5 µM
same,MBC,[2]; B. cereus BAG1X2-1 NR-28578,2 µM
same,MIC,[2]; B. cereus BAG1X2-1 NR-28578,1 µM
same,MBC,[2]; B. cereus G9241 NR-9564,1 µM
same,MIC,[2]; B. cereus G9241 NR-9564,1 µM
same,MBC,[2]; B. cereus VD014 NR-22141,4 µM
same,MIC,[2]; B. cereus VD014 NR-22141,2 µM
same,MBC,[2]; B. cereus VD115 NR-22148,1 µM
same,MIC,[2]; B. cereus VD115 NR-22148,< 0.5 µM
same,MBC,[2]; B. cereus VD148 NR-22150,2 µM
same,MIC,[2]; B. cereus VD148 NR-22150,2 µM
same,MBC,[2]; [16],4 µM
same,MIC,[2]; [16],2 µM
same,MBC,[3]; [17],2 µM
same,MIC,[3]; [17],1 µM
same,MBC,[3]; [18],4 µM
same,MIC,[3]; [18],2 µM
same,MBC,[4],8 µM
same,MIC,[4],4 µM
same,MIC,[5]; [19],≤0.5 µM
same,MIC,[5]; [20],4 µM
same,MIC,"[5]; Escherichia coli, ATCC35150",> 128 µM
same,MIC,"[5]; Escherichia coli, ATCC700728",> 128 µM
same,MIC,[6]; [21],>64 µM
same,MIC,[6]; [22],> 128 µM
same,MIC,[7]; [23],>64 µM
same,MIC,"[7]; Klebsiella pneumoniae, BAA2146",> 128 µM
same,MIC,[8]; [24],64 µM
same,MIC,[8]; [25],> 128 µM
same,MIC,[9]; [26],>64 µM
same,MIC,[9]; [27],>64 µM
same,MIC,[9]; [28],> 128 µM
same,MIC,[9]; [29],> 128 µM
same,MIC,[10]; [30],>256 µM
same,MIC,[10]; [31],128 µM
same,MIC,"[10]; Escherichia coli, ATCC35150",> 256 µM
same,MIC,"[10]; Escherichia coli, ATCC700728",> 128 µM
same,MIC,[11]; [32],64 µM
same,MIC,[11]; [22],> 128 µM
same,MIC,[12]; E.coli 1411,> 64 µM
same,MIC,[12]; [33],16 µM
O=C(O)[C@H](Cc1ccccc1)N1C(=O)/C(=C/c2cccc(Oc3ccc(Cl)c(Cl)c3)c2)SC1=S [Rh 1],MIC90,[1],8 µM
same,MIC50,[1],8 µM
same,MIC50,"[13]; 15 VRSA strains, read-out: MIC 50",8 µM
same,MIC90,"[13]; 15 VRSA strains, read-out: MIC 90",8 µM
same,MBC,"[13]; VRSA 1, read-out: MBC",8 µM
same,MIC,"[13]; VRSA 1, read-out: MIC",8 µM
same,MBC,"[13]; VRSA 2, read-out: MBC",8 µM
same,MIC,"[13]; VRSA 2, read-out: MIC",8 µM
same,MBC,"[13]; VRSA 3a, read-out: MBC",16 µM
same,MIC,"[13]; VRSA 3a, read-out: MIC",8 µM
same,MBC,"[13]; VRSA 3b, read-out: MBC",8 µM
same,MIC,"[13]; VRSA 3b, read-out: MIC",8 µM
same,MBC,"[13]; VRSA 4, read-out: MBC",8 µM
same,MIC,"[13]; VRSA 4, read-out: MIC",8 µM
same,MBC,"[13]; VRSA 5, read-out: MBC",16 µM
same,MIC,"[13]; VRSA 5, read-out: MIC",8 µM
same,MBC,"[13]; VRSA 6, read-out: MBC",8 µM
same,MIC,"[13]; VRSA 6, read-out: MIC",4 µM
same,MBC,"[13]; VRSA 7, read-out: MBC",8 µM
same,MIC,"[13]; VRSA 7, read-out: MIC",8 µM
same,MBC,"[13]; VRSA 8, read-out: MBC",32 µM
same,MIC,"[13]; VRSA 8, read-out: MIC",4 µM
same,MBC,"[13]; VRSA 9, read-out: MBC",32 µM
same,MIC,"[13]; VRSA 9, read-out: MIC",8 µM
same,MBC,"[13]; VRSA 10, read-out: MBC",32 µM
same,MIC,"[13]; VRSA 10, read-out: MIC",8 µM
same,MBC,"[13]; VRSA 11a, read-out: MBC",16 µM
same,MIC,"[13]; VRSA 11a, read-out: MIC",8 µM
same,MBC,"[13]; VRSA 11b, read-out: MBC",32 µM
same,MIC,"[13]; VRSA 11b, read-out: MIC",8 µM
same,MBC,"[13]; VRSA 12, read-out: MBC",32 µM
same,MIC,"[13]; VRSA 12, read-out: MIC",8 µM
same,MBC,"[13]; VRSA 13, read-out: MBC",32 µM
same,MIC,"[13]; VRSA 13, read-out: MIC",8 µM
same,MBC,[14]; Bacillus anthracis AMES35,2 µM
same,MIC,[14]; Bacillus anthracis AMES35,2 µM
same,MBC,[14]; Bacillus anthracis UM23,2 µM
same,MIC,[14]; Bacillus anthracis UM23,2 µM
same,MBC,[14]; Bacillus anthracis Weybridge,2 µM
same,MIC,[14]; Bacillus anthracis Weybridge,2 µM
same,MBC,[2]; B. cereus BAG1O-2 NR-28582,4 µM
same,MIC,[2]; B. cereus BAG1O-2 NR-28582,4 µM
same,MBC,[2]; B. cereus BAG1X1-1 NR-28575,2 µM
same,MIC,[2]; B. cereus BAG1X1-1 NR-28575,2 µM
same,MBC,[2]; B. cereus BAG1X2-1 NR-28578,4 µM
same,MIC,[2]; B. cereus BAG1X2-1 NR-28578,4 µM
same,MBC,[2]; B. cereus G9241 NR-9564,4 µM
same,MIC,[2]; B. cereus G9241 NR-9564,4 µM
same,MBC,[2]; B. cereus VD014 NR-22141,4 µM
same,MIC,[2]; B. cereus VD014 NR-22141,4 µM
same,MBC,[2]; B. cereus VD115 NR-22148,4 µM
same,MIC,[2]; B. cereus VD115 NR-22148,4 µM
same,MBC,[2]; B. cereus VD148 NR-22150,4 µM
same,MIC,[2]; B. cereus VD148 NR-22150,4 µM
same,MBC,[2]; [16],4 µM
same,MIC,[2]; [16],4 µM
same,MBC,[3]; [17],2 µM
same,MIC,[3]; [17],2 µM
same,MBC,[3]; [18],4 µM
same,MIC,[3]; [18],4 µM
same,MBC,[4],8 µM
same,MIC,[4],4 µM
same,MIC,[15]; ATCC13345,> 128 µM
same,MIC,[15]; ATCC17786,> 128 µM
same,MIC,[5]; [19],>64 µM
same,MIC,[5]; [20],>64 µM
same,MIC,"[5]; Escherichia coli, ATCC35150",> 128 µM
same,MIC,"[5]; Escherichia coli, ATCC700728",> 128 µM
same,MIC,[6]; [21],>64 µM
same,MIC,[6]; [22],> 128 µM
same,MIC,[7]; [23],>64 µM
same,MIC,"[7]; Klebsiella pneumoniae, BAA2146",> 128 µM
same,MIC,[8]; [24],>64 µM
same,MIC,[8]; [25],> 128 µM
same,MIC,[9]; [26],>64 µM
same,MIC,[9]; [27],>64 µM
same,MIC,[9]; [28],> 128 µM
same,MIC,[9]; [29],> 128 µM
same,MIC,[10]; [30],8 µM
same,MIC,[10]; [31],>64 µM
same,MIC,"[10]; Escherichia coli, ATCC35150",> 256 µM
same,MIC,"[10]; Escherichia coli, ATCC700728",> 128 µM
same,MIC,[11]; [32],>128 µM
same,MIC,[11]; [22],> 128 µM
same,MIC,[12]; E.coli 1411,> 64 µM
same,MIC,[12]; [33],> 64 µM

# Reference: article PMC5053523, “In Vitro Antibacterial Activity of Rhodanine Derivatives against Pathogenic Clinical Isolates” (PLoS ONE, 2016)
